From patent publication US20260008768A1, “UREA DERIVATIVES FOR INHIBITING NLRP3 AND USES THEREOF” (VENTUS THERAPEUTICS U.S., INC., priority 2023, published 2026) come the findings set out here.

The IC50 is the concentration that inhibits the measured activity by half.

For test [1], the target named is T1, mouse NLRP3 (Mus musculus, UniProt Q8R4B8).
T1 construct: from tissue; host or cells: whole blood of female CD1 mice
The test is described as follows: Mouse Whole Blood (mWB) NLRP3 Assay (LPS/ATP, IL-1b). The format is cell-based. Here is the method: Reagents: The following reagents were used: blood collection tubes (Heparin); U-bottom 96-well tissue culture (Falcon 353077); HBSS for LPS, ATP and compound dilutions (Gibco 24020-117); and LPS, E. coli serotype O26:B6 (Sigma L-2654).
Mouse IL-1b MSD assay: Blood was drawn from female CD1 mice (9 to 10 weeks) by cardiac puncture. Blood was plated (135 μL) per well in 96-well U-bottom plates. 7.5 μL of 20×LPS (20 μg/mL, final concentration of 1 μg/mL) was added and mixed by gentle pipetting, and the mixture was incubated in a TC incubator for five hours. 7.5 μL of 20× compound or vehicle per well was added and mixed by gentle pipetting. Compounds were diluted 1/50 in HBSS to prepare a 20× dilution curve in 2% DMSO. The mixture was incubated for 30 minutes in a TC incubator with shaking (450 rpm). 5 μl of 31×ATP (155 mM, final concentration of 5 mM) was added and mixed by gentle pipetting. The mixture was incubated in a TC incubator for 30 minutes with shaking (450 rpm). The plate was centrifuged for 10 minutes at 800×g and ˜70 μL of plasma was removed. Plasma was frozen if required. Mouse IL-1b was analyzed with IL-1b MSD assay (K152TUK).
Compounds were added 30 minutes before priming the cells with LPS when TNFα was required to be quantified in the cytokine panel to confirm selectivity.
mWB NLRP3 IC50 assay results, as a measurement of whole blood potency, are provided in Table B. “A” activity=<1 uM; “B” activity=1-2 uM; “C” activity=>2-3 uM; “D” activity=>3 uM.

Test [2] concerns the target human NLRP3 (Homo sapiens, UniProt Q96P20). The test is described as follows: Human PBMC NLRP3 Assay (LPS priming, ATP stimulation, cytokine measurement). The format is cell-based. Also noted: host or cells: human PBMCs (A2); human whole blood from healthy volunteers (A3). The settings on record: for IC50: human PBMC, LPS + ATP. The method in brief: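 Human PBMCs (5×10^4/well) primed with 100 ng/ml LPS for 4 h, then given compound for 30 min and stimulated with 5 mM ATP for 1 h at 37° C. Supernatant cytokines measured on the Mesoscale platform to give IC50. For TNFα selectivity, compound was added 30 min before LPS priming.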

Structures are written as SMILES.

T1 sequence (Q8R4B8 whole entry): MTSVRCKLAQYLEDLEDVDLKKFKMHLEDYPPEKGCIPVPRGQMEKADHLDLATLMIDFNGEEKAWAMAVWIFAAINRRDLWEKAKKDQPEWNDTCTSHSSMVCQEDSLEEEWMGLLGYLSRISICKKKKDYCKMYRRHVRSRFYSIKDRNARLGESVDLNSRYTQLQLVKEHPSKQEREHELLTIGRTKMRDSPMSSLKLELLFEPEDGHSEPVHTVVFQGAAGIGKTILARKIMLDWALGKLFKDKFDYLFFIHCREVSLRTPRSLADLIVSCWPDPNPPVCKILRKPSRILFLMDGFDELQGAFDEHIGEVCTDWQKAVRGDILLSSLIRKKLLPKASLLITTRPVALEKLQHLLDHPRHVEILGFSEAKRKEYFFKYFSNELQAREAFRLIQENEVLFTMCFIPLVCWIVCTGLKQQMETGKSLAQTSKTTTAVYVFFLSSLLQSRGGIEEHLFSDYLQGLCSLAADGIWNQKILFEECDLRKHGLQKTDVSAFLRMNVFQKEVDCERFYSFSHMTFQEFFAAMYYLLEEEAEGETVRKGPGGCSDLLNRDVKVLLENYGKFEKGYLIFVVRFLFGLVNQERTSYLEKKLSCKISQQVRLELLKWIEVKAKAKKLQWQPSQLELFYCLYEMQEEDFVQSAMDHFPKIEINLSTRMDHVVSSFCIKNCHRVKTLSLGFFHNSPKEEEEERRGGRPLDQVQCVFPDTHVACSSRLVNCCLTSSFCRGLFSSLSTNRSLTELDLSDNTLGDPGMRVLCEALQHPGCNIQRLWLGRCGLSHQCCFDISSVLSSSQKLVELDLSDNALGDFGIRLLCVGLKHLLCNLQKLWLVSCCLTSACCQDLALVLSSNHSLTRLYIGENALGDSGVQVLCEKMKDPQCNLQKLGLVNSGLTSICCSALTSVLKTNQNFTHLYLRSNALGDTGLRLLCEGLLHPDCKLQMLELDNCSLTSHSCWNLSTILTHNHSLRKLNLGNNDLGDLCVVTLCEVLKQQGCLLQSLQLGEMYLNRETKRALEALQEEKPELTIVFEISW
Sequence of human NLRP3 (Q96P20 whole entry): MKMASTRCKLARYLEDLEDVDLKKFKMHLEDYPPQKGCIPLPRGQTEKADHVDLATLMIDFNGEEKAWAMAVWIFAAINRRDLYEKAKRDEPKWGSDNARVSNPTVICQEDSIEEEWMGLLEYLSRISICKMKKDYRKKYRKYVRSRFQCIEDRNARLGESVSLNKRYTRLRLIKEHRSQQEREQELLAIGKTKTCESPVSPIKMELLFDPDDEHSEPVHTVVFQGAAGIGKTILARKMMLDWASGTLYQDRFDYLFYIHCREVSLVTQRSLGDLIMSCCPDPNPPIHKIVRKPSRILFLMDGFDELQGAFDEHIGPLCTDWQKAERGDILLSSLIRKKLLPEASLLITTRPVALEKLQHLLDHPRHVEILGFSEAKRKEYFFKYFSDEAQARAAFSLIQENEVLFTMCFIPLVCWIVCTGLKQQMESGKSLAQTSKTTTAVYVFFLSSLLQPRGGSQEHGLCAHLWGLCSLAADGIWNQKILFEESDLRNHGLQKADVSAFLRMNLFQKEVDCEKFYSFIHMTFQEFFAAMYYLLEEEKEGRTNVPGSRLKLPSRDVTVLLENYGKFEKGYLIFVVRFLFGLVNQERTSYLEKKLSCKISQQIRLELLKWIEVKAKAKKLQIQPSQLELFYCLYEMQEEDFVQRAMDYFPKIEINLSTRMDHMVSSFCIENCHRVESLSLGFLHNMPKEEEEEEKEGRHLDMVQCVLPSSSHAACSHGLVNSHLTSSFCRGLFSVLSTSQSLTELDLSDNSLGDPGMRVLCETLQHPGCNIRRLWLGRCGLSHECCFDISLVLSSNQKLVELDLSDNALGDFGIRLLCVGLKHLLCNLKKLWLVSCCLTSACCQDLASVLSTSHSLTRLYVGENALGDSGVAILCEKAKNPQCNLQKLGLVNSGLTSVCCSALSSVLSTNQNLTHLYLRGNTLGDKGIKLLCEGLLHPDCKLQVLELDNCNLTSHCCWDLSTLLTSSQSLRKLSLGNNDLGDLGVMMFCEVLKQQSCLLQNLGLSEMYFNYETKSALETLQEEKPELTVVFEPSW

On to `C[C@@H]1CCN(c2nnn[nH]2)C[C@H](NC(=O)N(C)c2ccc(OC(F)(F)F)cc2)C1` (single isomer, unassigned) [10A*], for which the IC50 in test [1] (Table B, activity class) was less than 1000 nM; in test [1] (Table C) it was 95 nM; in test [2] (Table B, activity class), less than 10 nM; in test [2] (Table C), 9.1 nM.

As for `C[C@@H]1CCN(c2nnn[nH]2)C[C@H](NC(=O)N(C)c2ccc(Cl)cc2)C1` (single isomer, unassigned) [4A*], the IC50 in test [1] (Table B, activity class) is less than 1000 nM; in test [1] (Table C) it was 40 nM; in test [2] (Table B, activity class) it was less than 10 nM; in test [2] (Table C), 6.8 nM. Besides, the “fold improvement in potency (PBMC IC50)” value in test [2] (relative to Comparative Example B1) is listed as greater than 700 fold.

Consider `C[C@@H]1CCN(c2nnn[nH]2)C[C@H](NC(=O)N(C)c2ccc(OC(F)F)cc2)C1` (single isomer, unassigned) [11A*], for which the IC50 was less than 1000 nM in test [1] (Table B, activity class); 26 nM in test [1] (Table C); less than 10 nM in test [2] (Table B, activity class); 4.2 nM in test [2] (Table C).
